Molecules are shown by their SMILES.

One test deals with Con-NCI-H82 cell. Description: Cell viability (Promega CellTiter-Glo, intracellular ATP), IC50 on Con-NCI-H82 cell. Type of test: cell-based. Conditions: Homo sapiens; normal untreated NCI-H82 cell (control). The text has this: (§1) The expression of NNMT protein in NCI-H82 cell was overexpressed by inserting the NNMT gene into NCI-H82 cell using a viral vector, and the NNMT protein-overexpressing NCI-H82 cell (ov-NNMT NCI-H82 cell) was obtained. The normal and untreated NCI-H82 cell (Con-NCI-H82 cell) was used as control. The expressing content of NNMT protein in the ov-NNMT NCI-H82 cell and Con-NCI-H82 cell was detected using Western Blot assay (as shown in FIG. 1), it could be seen from FIG. 1 that the NNMT protein was overexpressed in the ov-NNMT NCI-H82 cell compared with the expression level of NNMT protein in the Con-NCI-H82 cell.
(§2) The cell viability was detected using the Promega CellTiter-Glo kit which reflected cell viability by measuring intracellular ATP content. The Con-NCI-H82 cell and ov-NNMT NCI-H82 cell was cultured in 10% fetal bovine serum-containing RPMI1640 medium (+P/S).
For orientation: Cellular ATP, detected with luciferase, serves as a proxy for viable cell number.

The next test has as its system ov-NNMT NCI-H82 cell. The test is described as follows: Cell viability (Promega CellTiter-Glo, intracellular ATP), IC50 on NNMT-overexpressing NCI-H82 cell. Type of test: cell-based. The settings on record: Homo sapiens; NCI-H82 cell overexpressing NNMT protein.
Source text: as §1, §2

What is called IC50 is the concentration that gives 50% inhibition. Higher therefore signals a need for much substance. Regarding `Cc1ccc(C(=O)Cn2cc(C)c3c[n+](Cc4ccccc4)ccc32)cc1` [AB27268], the results for the IC50 in the test on Con-NCI-H82 cell and in the test on ov-NNMT NCI-H82 cell were 104 nM and 1320 nM, respectively.
For `Cc1ccc2c(c1)C(=O)C(n1ccc3c[n+](C(C)c4ccccc4)ccc31)CC2` (stereo not drawn) [AB27180] the same measures were 16 nM and 222 nM.
The matching figures for `Cc1cn(C2CCc3ccc(F)cc3C2=O)c2cc[n+](Cc3ccccc3)cc12` (stereo not drawn) [AB27460]: 34 nM and 438 nM.
The matching figures for `Cc1ccc(C(=O)C[n+]2ccc(N(Cc3ccccc3)C(=O)C(C)C)cc2)cc1` [AB27235]: 178 nM and 1980 nM.
`Cc1cc(NCc2ccccc2)cc[n+]1CC(=O)c1cccc(C(F)(F)F)c1` [AB27275]: the half-inhibitory concentration (IC50) in the test with Con-NCI-H82 cell was determined as 63 nM; in the test on ov-NNMT NCI-H82 cell it was 886 nM.
`Cc1ccc2c(c1)CCC([n+]1ccc3c(c1)c(C)cn3Cc1ccccc1)C2=O` (stereo not drawn) [AB27177]: the values for the IC50 with Con-NCI-H82 cell and in the test with ov-NNMT NCI-H82 cell were 131 nM and 1860 nM, respectively.
For the compound `Cc1cn(CC(=O)c2cccc(Cl)c2)c2cc[n+](C(C)c3ccccc3)cc12` (stereo not drawn) [AB27270], the results for the IC50 in the test with Con-NCI-H82 cell and in the test with ov-NNMT NCI-H82 cell were 401 nM and 3690 nM, respectively.
The matching figures for `O=C(C[n+]1ccc2c(ccn2C2CCc3ccc(Cl)cc3C2=O)c1)c1ccccc1` (stereo not drawn) [AB27314]: 3040 nM and 5580 nM.
For `O=C1c2ccc(C(F)(F)F)cc2CCC1n1ccc2c[n+](Cc3ccccc3)ccc21` (stereo not drawn) [AB27290] the same measures were 91 nM and 944 nM.
For `Cc1ccc2c(c1)C(=O)C([n+]1ccc3cn(Cc4ccccc4)cc3c1)CC2` (stereo not drawn) [AB27287] the same measures were 198 nM and 2540 nM.
On to `O=C1c2cc(Cl)ccc2CCC1n1ccc2c[n+](Cc3ccccc3Cl)ccc21` (stereo not drawn) [AB27243], for which the IC50 in the test on Con-NCI-H82 cell came out at 15 nM; in the test with ov-NNMT NCI-H82 cell, 184 nM.
With `Cc1cccc(-c2c[nH]c3c[n+](CC(=O)c4ccc(OC(F)(F)F)cc4)ccc23)c1` [AB27121], the IC50 with Con-NCI-H82 cell came to 2260 nM; in the test on ov-NNMT NCI-H82 cell it was 6450 nM.
For `O=C(Cn1cnc2c[n+](Cc3ccccc3)ccc21)c1cccc(OC(F)(F)F)c1` [AB31702] the same measures were 5460 nM and 17500 nM.
For `Cc1c(Cl)c2c[n+](Cc3ccccc3)ccc2n1C1CCc2ccc(Cl)cc2C1=O` (stereo not drawn) [AB27485] the same measures were 504 nM and 7100 nM.
For `CC(c1ccccc1)c1cn(C)c2c[n+](C3CCc4ccc(Cl)cc4C3=O)ccc12` (stereo not drawn) [AB27186] the same measures were 1990 nM and 5690 nM.
For the compound `CC(=O)C[n+]1ccc2c(ccn2C2CCc3ccc(Cl)cc3C2=O)c1` (stereo not drawn) [AB27313], the IC50 with Con-NCI-H82 cell is 4370 nM; in the test on ov-NNMT NCI-H82 cell, 7360 nM.
The matching figures for `Cc1cc2c[n+](Cc3ccccc3)ccc2n1CC(=O)c1ccc(C(F)(F)F)cc1` [AB27357]: 74 nM and 1220 nM.
For `O=C1c2ccc(OC(F)(F)F)cc2CCC1[n+]1ccc2c(c1)CCC(c1ccccc1)N2` (stereo not drawn) [AB27105], the IC50 is 874 nM in the test with Con-NCI-H82 cell and 5430 nM in the test on ov-NNMT NCI-H82 cell.
Consider `O=C1c2ccc(C(F)(F)F)cc2CCC1[n+]1ccc2cn(Cc3ccccc3)cc2c1` (stereo not drawn) [AB27294], for which the half-maximal inhibitory concentration (IC50) in the test with Con-NCI-H82 cell is 1050 nM; in the test on ov-NNMT NCI-H82 cell, 6530 nM.
The matching figures for `Cc1cn(C2CCc3ccc(OC(F)(F)F)cc3C2=O)c2cc[n+](C(C)c3ccccc3)cc12` (stereo not drawn) [AB27469]: 427 nM and 5430 nM.
The matching figures for `O=C(Cn1c(Br)cc2c[n+](Cc3ccccc3)ccc21)c1cccc(C(F)(F)F)c1` [AB27490]: 19 nM and 319 nM.
The matching figures for `O=C(C[n+]1ccc(NCc2ccccc2)nc1)c1cccc(C(F)(F)F)c1` [AB27160]: 744 nM and 5490 nM.
Take `Cc1ccc(C(=O)C[n+]2ccc(NCc3ccccc3)cc2C)cc1C` [AB27327]: the IC50 with Con-NCI-H82 cell came out at 67 nM; in the test with ov-NNMT NCI-H82 cell, 1040 nM.
As for `Cc1ccccc1C[n+]1ccc2c(ccn2C2CCc3ccc(Cl)cc3C2=O)c1` (stereo not drawn) [AB27242], the concentration for half-maximal inhibition (IC50) with Con-NCI-H82 cell was 15 nM; in the test with ov-NNMT NCI-H82 cell, 204 nM.
For `O=C1c2ccc(OC(F)(F)F)cc2CCC1n1ccc2c[n+](Cc3ccccc3)ccc21` (stereo not drawn) [AB27291] the same measures were 79 nM and 1040 nM.
Turning to `CC(c1ccccc1)[n+]1ccc2c(ccn2C2CCc3ccc(F)cc3C2=O)c1` (stereo not drawn) [AB27354], the 50% inhibitory concentration (IC50) in the test on Con-NCI-H82 cell came to 13 nM; with ov-NNMT NCI-H82 cell it was 222 nM.
For `Cc1cc(NCc2ccccc2)cc[n+]1CC(=O)c1ccc(C(F)(F)F)cc1` [AB27273] the same measures were 187 nM and 1540 nM.
The matching figures for `Cc1cccc(C[n+]2ccc3c(ccn3C3CCc4ccc(Cl)cc4C3=O)c2)c1` (stereo not drawn) [AB27241]: 14 nM and 184 nM.
The matching figures for `Cc1ccc(C(=O)C[n+]2ccc(NCc3ccccc3)c(C)c2C)cc1` [AB27278]: 21 nM and 284 nM.
Consider `Cc1ccc(C(=O)C[n+]2ccc(NCc3ccccc3)cc2C(C)C)cc1` [AB27237], for which the IC50 with Con-NCI-H82 cell is 39 nM; with ov-NNMT NCI-H82 cell, 525 nM.
Turning to `Cc1ccc(C(=O)C[n+]2cc3c(cc2Cl)c(Cc2ccccc2)cn3C)cc1` [AB27482], the figures for the IC50 in the test on Con-NCI-H82 cell and with ov-NNMT NCI-H82 cell were 3420 nM and 9570 nM, respectively.
For the compound `O=C1c2cc(Cl)ccc2CCC1n1cc(Cl)c2c[n+](Cc3ccccc3)ccc21` (stereo not drawn) [AB27271], the half-maximal inhibitory concentration (IC50) in the test with Con-NCI-H82 cell amounted to 34 nM; in the test on ov-NNMT NCI-H82 cell, 567 nM.
For `Cc1cn(CC(=O)c2cccc(F)c2)c2cc[n+](C(C)c3ccccc3)cc12` (stereo not drawn) [AB27479] the same measures were 258 nM and 2050 nM.
The matching figures for `CC(c1ccccc1)[n+]1ccc2c(ccn2C2CCc3ccsc3C2=O)c1` (stereo not drawn) [AB27199]: 446 nM and 4830 nM.
Consider `Cc1ccc(C(=O)C[n+]2ccc(NCc3ccccc3)cc2C2CC2)cc1` [AB27238], for which the IC50 in the test on Con-NCI-H82 cell is 151 nM; with ov-NNMT NCI-H82 cell, 1150 nM.
For the compound `Cc1nc2c(s1)C(=O)C(n1ccc3c[n+](C(C)c4ccccc4)ccc31)CC2` (stereo not drawn) [AB27203], the IC50 was 1940 nM in the test on Con-NCI-H82 cell and 6430 nM in the test with ov-NNMT NCI-H82 cell.
For `O=C1c2cc(OC(F)(F)F)ccc2CCC1[n+]1cnc2c(c1)CCC(c1ccccc1)N2` (stereo not drawn) [AB27136] the same measures were 5610 nM and 14600 nM.
The matching figures for `Cc1cn(CC(=O)c2cccc(Cl)c2)c2cc[n+](Cc3ccccc3)cc12` [AB27266]: 89 nM and 754 nM.
For `Cc1ccc(C(=O)C[n+]2ccc3cn(Cc4ccccc4)cc3c2)cc1` [AB27296], the IC50 in the test on Con-NCI-H82 cell amounted to 396 nM; in the test on ov-NNMT NCI-H82 cell, 3580 nM.
As for `O=C(C[n+]1ccc2c(c1)CCC(c1ccccc1)N2)c1cccc(OC(F)(F)F)c1` (stereo not drawn) [AB27147], the IC50 in the test with Con-NCI-H82 cell amounted to 1390 nM; in the test with ov-NNMT NCI-H82 cell, 5480 nM.
On to `Cc1cc(NCc2ccccc2)cc[n+]1CC(=O)c1cccc(OC(F)(F)F)c1` [AB27276], for which the half-maximal inhibitory concentration (IC50) with Con-NCI-H82 cell turned out to be 92 nM; with ov-NNMT NCI-H82 cell it was 1130 nM.
For the compound `O=C1c2cc(F)ccc2CCC1n1ccc2c[n+](Cc3ccccc3)ccc21` (stereo not drawn) [AB27353], the IC50 with Con-NCI-H82 cell came out at 19 nM; in the test with ov-NNMT NCI-H82 cell, 332 nM.
For `O=C1c2cc(C(F)(F)F)ccc2CCC1[n+]1ccc2cn(Cc3ccccc3)cc2c1` (stereo not drawn) [AB27288] the same measures were 344 nM and 2490 nM.
The matching figures for `O=C(Cn1ncc2c[n+](Cc3ccccc3)ccc21)c1ccc(C(F)(F)F)cc1` [AB31705]: 5370 nM and 19000 nM.
For `O=C1c2cc(Cl)ccc2CCC1[n+]1ccc2c(c1)CCC(c1ccccc1)N2` (stereo not drawn) [AB27134] the same measures were 3350 nM and 12400 nM.
Turning to `Cc1cc2c[n+](Cc3ccccc3)ccc2n1C1CCc2ccc(F)cc2C1=O` (stereo not drawn) [AB27473], the half-maximal inhibitory concentration (IC50) was 81 nM in the test on Con-NCI-H82 cell and 1210 nM with ov-NNMT NCI-H82 cell.
For `CCCn1ccc2c[n+](C3CCc4ccc(C(F)(F)F)cc4C3=O)ccc21` (stereo not drawn) [AB27150], the IC50 was 632 nM with Con-NCI-H82 cell and 3170 nM in the test on ov-NNMT NCI-H82 cell.
`CCc1cc(NCc2ccccc2)cc[n+]1CC(=O)c1ccc(C)cc1` [AB27236]: the values for the IC50 in the test on Con-NCI-H82 cell and with ov-NNMT NCI-H82 cell were 50 nM and 822 nM, respectively.
For `Cc1ccc(C(=O)C[n+]2ccc3c(Cc4ccccc4)cn(C)c3c2C)cc1` [AB27343] the same measures were 2040 nM and 5870 nM.
The matching figures for `O=C(Cn1ncc2c[n+](Cc3ccccc3)ccc21)c1cccc(C(F)(F)F)c1` [AB27499]: 921 nM and 6840 nM.
The matching figures for `O=C(Cn1cnc2c[n+](Cc3ccccc3)ccc21)c1cccc(C(F)(F)F)c1` [AB31703]: 2140 nM and 12300 nM.
With `Cc1ccc2c(c1)C(=O)C([n+]1cnc3c(c1)CCC(c1ccccc1)N3)CC2` (stereo not drawn) [AB27137], the half-inhibitory concentration (IC50) came out at 4360 nM with Con-NCI-H82 cell and 12000 nM in the test on ov-NNMT NCI-H82 cell.
For `Cc1ccc(C(=O)C[n+]2ccc(NCc3ccccc3)c3ccccc32)cc1` [AB27272] the same measures were 776 nM and 5480 nM.
The matching figures for `CCC(c1ccccc1)[n+]1ccc2c(ccn2C2CCc3ccc(Cl)cc3C2=O)c1` (stereo not drawn) [AB27246]: 18 nM and 308 nM.
For `CC(c1ccccc1)n1cc2cc[n+](C3CCc4ccc(F)cc4C3=O)cc2c1` (stereo not drawn) [AB27480] the same measures were 181 nM and 2340 nM.
Turning to `Cc1ccc(C(=O)C[n+]2ccc(NCc3cccc(C)n3)cc2C)cc1` [AB27328], the IC50 with Con-NCI-H82 cell came out at 2800 nM; with ov-NNMT NCI-H82 cell, 8470 nM.
The matching figures for `Cc1cc2c[n+](Cc3ccccc3)ccc2n1CC(=O)c1ccc(OC(F)(F)F)cc1` [AB27358]: 83 nM and 1090 nM.

These data come from patent publication US20250214993A1, “AROMATIC RING COMPOUND AND USE THEREOF” (SHANGHAI SHIJIANG BIOTECHNOLOGY CO., LTD, priority 2022, published 2025).
